Legend:
Format in all cases: in vivo
[1] = test system: barnyardgrass (Echinochloa crus-galli); experiment: Test B flooded paddy test; details: Echinochloa crus-galli, 250 g ai/ha, Flood; 0 to 100 scale where 0 is no effect and 100 is complete control; read-out: Barnyardgrass plant response rating
In short: (§1)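 Compound goes directly into floodwater once pots are flooded 3 cm above soil, targeting plants at two leaves; the water depth is then held for the test duration. Plants sit 13–15 d in a greenhouse and are rated visually, 100 denoting complete control.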

[2] = test system: sedge, umbrella (small-flower umbrella sedge, Cyperus difformis); experiment: Test B flooded paddy test; details: Cyperus difformis, 250 g ai/ha, Flood; 0 to 100 scale where 0 is no effect and 100 is complete control; read-out: Sedge, Umbrella plant response rating
In short: as §1

[3] = test system: rice (Oryra sativa); experiment: Test B flooded paddy test; details: Oryza sativa, 250 g ai/ha, Flood; 0 to 100 scale where 0 is no effect and 100 is complete control; read-out: Rice plant response rating
In short: as §1

[4] = test system: ducksalad (Heteranthera limosa); experiment: Test B flooded paddy test; details: Heteranthera limosa, 250 g ai/ha, Flood; 0 to 100 scale where 0 is no effect and 100 is complete control; read-out: Ducksalad plant response rating
In short: as §1

[5] = test system: barnyardgrass (Echinochloa crus-galli); experiment: Test A preemergence; details: Echinochloa crus-galli, pre-emergence, 240 h, 0 to 100 scale where 0 is no effect and 100 is complete control, read-out: Barnyardgrass plant response rating
In short: (§2)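 Visual injury scores from 0, no effect, to 100, complete control, were assigned versus untreated controls roughly 10 d after treatment in the greenhouse. Test chemicals, formulated with surfactant in a non-phytotoxic solvent, were applied to planted seeds as a preemergence soil spray or postemergence to one- to two-leaf plants 2 to 10 cm tall, in loam–sand soil.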

[6] = test system: giant foxtail (Setaria faberii); experiment: Test A preemergence; details: Setaria faberi, pre-emergence, 240 h, 0 to 100 scale where 0 is no effect and 100 is complete control, read-out: Foxtail, Giant plant response rating
In short: as §2

[7] = test system: ryegrass, Italian (Italian ryegrass, Lolium multiflorum); experiment: Test A preemergence; details: Lolium multiflorum, pre-emergence, 240 h, 0 to 100 scale where 0 is no effect and 100 is complete control, read-out: Ryegrass, Italian plant response rating
In short: as §2

[8] = test system: ragweed (common ragweed, Ambrosia elatior); experiment: Test A preemergence; details: Ambrosia artemisiifolia, pre-emergence, 240 h, 0 to 100 scale where 0 is no effect and 100 is complete control, read-out: Ragweed plant response rating
In short: as §2

[9] = test system: Kochia (Kochia scoparia); experiment: Test A preemergence; details: Bassia scoparia, pre-emergence, 240 h, 0 to 100 scale where 0 is no effect and 100 is complete control, read-out: Kochia plant response rating
In short: as §2

[10] = test system: pigweed (Amaranthus retroflexus); experiment: Test A preemergence; details: Amaranthus retroflexus, pre-emergence, 240 h, 0 to 100 scale where 0 is no effect and 100 is complete control, read-out: Pigweed plant response rating
[11] = test system: barnyardgrass (Echinochloa crus-galli); experiment: Test A postemergence; details: Echinochloa crus-galli, post-emergence, 240 h
In short: as §2

[12] = test system: corn (Zea mays); experiment: Test A postemergence; details: Zea mays, post-emergence, 240 h
In short: as §2

[13] = test system: giant foxtail (Setaria faberii); experiment: Test A postemergence; details: Setaria faberi, post-emergence, 240 h
In short: as §2

[14] = test system: ryegrass, Italian (Italian ryegrass, Lolium multiflorum); experiment: Test A postemergence; details: Lolium multiflorum, post-emergence, 240 h
In short: as §2

[15] = test system: blackgrass (Alopecurus myosuroides); experiment: Test A postemergence; details: Alopecurus myosuroides, post-emergence, 240 h
In short: as §2

[16] = test system: ragweed (common ragweed, Ambrosia elatior); experiment: Test A postemergence; details: Ambrosia artemisiifolia, post-emergence, 240 h
In short: as §2

[17] = test system: Galium (catchweed bedstraw, Galium aparine); experiment: Test A postemergence; details: Galium, post-emergence, 240 h
In short: as §2

[18] = test system: wheat (Triticum aestivum); experiment: Test A postemergence; details: Triticum aestivum, post-emergence, 240 h
In short: as §2

[19] = test system: Kochia (Kochia scoparia); experiment: Test A postemergence; details: Bassia scoparia, post-emergence, 240 h
In short: as §2

[20] = test system: pigweed (Amaranthus retroflexus); experiment: Test A postemergence; details: Amaranthus retroflexus, post-emergence, 240 h
In short: as §2

[21] = 125 g ai/ha, preemergence, approx. 10 d

Cc1ccc([C@H]2CN(C)C(=O)[C@@H]2C(=O)Nc2cnccc2C)cc1 [Compound 1070]
0%: pest or weed control at 250 g/ha [1] | pest or weed control at 250 g/ha [2] | pest or weed control at 250 g/ha [3] | pest or weed control at 31 g/ha ([5]; 31 g ai/ha, Preemergence) | pest or weed control at 125 g/ha [5, 21] | pest or weed control at 31 g/ha ([6]; 31 g ai/ha, Preemergence) | pest or weed control at 31 g/ha ([7]; 31 g ai/ha, Preemergence) | pest or weed control at 125 g/ha [7, 21] | pest or weed control at 31 g/ha ([8]; 31 g ai/ha, Preemergence) | pest or weed control at 125 g/ha [8, 21] | pest or weed control at 31 g/ha ([9]; 31 g ai/ha, Preemergence) | pest or weed control at 125 g/ha [9, 21] | pest or weed control at 31 g/ha ([10]; 31 g ai/ha, Preemergence) | pest or weed control at 125 g/ha [10, 21] | pest or weed control at 125 g/ha ([11]; 125 g ai/ha, postemergence, visual injury on 0 to 100 scale (0 no effect, 100 complete control), approx. 10 d, read-out: Barnyardgrass plant response rating) | pest or weed control at 31 g/ha ([11]; Postemergence, 31 g ai/ha, visual injury after approx. 10 d, 0 to 100 scale, 0 no effect, 100 complete control, read-out: Plant response rating, Barnyardgrass) | plant injury at 125 g/ha ([12]; 125 g ai/ha, postemergence, visual injury on 0 to 100 scale (0 no effect, 100 complete control), approx. 10 d, read-out: Corn plant response rating) | Corn plant response rating (crop injury, 0 = no effect, 100 = complete kill) at 31 g/ha ([12]; Postemergence, 31 g ai/ha, visual injury after approx. 10 d, 0 to 100 scale, 0 no effect, 100 complete control) | pest or weed control at 125 g/ha ([13]; 125 g ai/ha, postemergence, visual injury on 0 to 100 scale (0 no effect, 100 complete control), approx. 10 d, read-out: Foxtail, Giant plant response rating) | pest or weed control at 31 g/ha ([13]; Postemergence, 31 g ai/ha, visual injury after approx. 10 d, 0 to 100 scale, 0 no effect, 100 complete control, read-out: Plant response rating, Foxtail, Giant) | pest or weed control at 125 g/ha ([14]; 125 g ai/ha, postemergence, visual injury on 0 to 100 scale (0 no effect, 100 complete control), approx. 10 d, read-out: Ryegrass, Italian plant response rating) | pest or weed control at 31 g/ha ([14]; Postemergence, 31 g ai/ha, visual injury after approx. 10 d, 0 to 100 scale, 0 no effect, 100 complete control, read-out: Plant response rating, Ryegrass, Italian) | pest or weed control at 125 g/ha ([15]; 125 g ai/ha, postemergence, visual injury on 0 to 100 scale (0 no effect, 100 complete control), approx. 10 d, read-out: Blackgrass plant response rating) | pest or weed control at 31 g/ha ([15]; Postemergence, 31 g ai/ha, visual injury after approx. 10 d, 0 to 100 scale, 0 no effect, 100 complete control, read-out: Plant response rating, Blackgrass) | pest or weed control at 125 g/ha ([16]; 125 g ai/ha, postemergence, visual injury on 0 to 100 scale (0 no effect, 100 complete control), approx. 10 d, read-out: Ragweed plant response rating) | pest or weed control at 31 g/ha ([16]; Postemergence, 31 g ai/ha, visual injury after approx. 10 d, 0 to 100 scale, 0 no effect, 100 complete control, read-out: Plant response rating, Ragweed) | pest or weed control at 125 g/ha ([17]; 125 g ai/ha, postemergence, visual injury on 0 to 100 scale (0 no effect, 100 complete control), approx. 10 d, read-out: Galium plant response rating) | pest or weed control at 31 g/ha ([17]; Postemergence, 31 g ai/ha, visual injury after approx. 10 d, 0 to 100 scale, 0 no effect, 100 complete control, read-out: Plant response rating, Galium) | plant injury at 125 g/ha ([18]; 125 g ai/ha, postemergence, visual injury on 0 to 100 scale (0 no effect, 100 complete control), approx. 10 d, read-out: Wheat plant response rating) | plant injury at 31 g/ha ([18]; Postemergence, 31 g ai/ha, visual injury after approx. 10 d, 0 to 100 scale, 0 no effect, 100 complete control, read-out: Plant response rating, Wheat) | pest or weed control at 125 g/ha ([19]; 125 g ai/ha, postemergence, visual injury on 0 to 100 scale (0 no effect, 100 complete control), approx. 10 d, read-out: Kochia plant response rating) | pest or weed control at 31 g/ha ([19]; Postemergence, 31 g ai/ha, visual injury after approx. 10 d, 0 to 100 scale, 0 no effect, 100 complete control, read-out: Plant response rating, Kochia) | pest or weed control at 125 g/ha ([20]; 125 g ai/ha, postemergence, visual injury on 0 to 100 scale (0 no effect, 100 complete control), approx. 10 d, read-out: Pigweed plant response rating) | pest or weed control at 31 g/ha ([20]; Postemergence, 31 g ai/ha, visual injury after approx. 10 d, 0 to 100 scale, 0 no effect, 100 complete control, read-out: Plant response rating, Pigweed)
80%: pest or weed control at 250 g/ha [4]
60%: pest or weed control at 125 g/ha [6, 21]

From patent US12077503B2, “Substituted cyclic amides and their use as herbicides” (FMC CORPORATION, priority 2015, dated 2024)
